Key:
[1] = biological target: T1, co-condensation of RNA, G3BP1, and caprin 1 (Homo sapiens, UniProt Q13283); test: In vitro LLPS, three-component system (G3BP1, caprin 1, RNA); format: biochemical; conditions: for IC50, inhibition of G3BP1-GFP in vitro phase separation / LogIC50, inhibition of G3BP1-GFP in vitro phase separation / IC50: 1.5 μM G3BP1, 1.5 μM caprin 1, 20 ng/μl total RNA; for IC50: read-out: IC50, inhibition of G3BP1-GFP in vitro phase separation; for co-condensation of caprin 1, G3BP1, and RNA: result in words; for HillSlope, inhibition of G3BP1-GFP in vitro phase separation: slope at the steepest part of the curve; for Bottom (lowest value of curve), percent inhibition of in vitro phase separation / Top (highest value of curve), percent inhibition of in vitro phase separation: three-component system
T1 construct: made in house; host or cells: E. coli BL21 (DE3)
Description: LLPS assays were performed in 30 μl total volume at 25°C at pH 7.4 in buffer containing 37 mM Tris, pH 7.5, 116 mM NaCl, 0.33% NP-40, 2.6% glycerol, 0.5 mM DTT with 20 ng/μl total cellular RNA from U2OS cells and 1.425 μM G3BP1, 0.075 μM FLAG-GFP-G3BP1, and 1.5 μM caprin 1. Reactions were initiated by adding G3BP1/caprin 1 protein mix to cellular RNA, followed by 3 min of shaking at 450 rpm and then incubation for 70 min in the dark. For condensates formed with G3BP1 and RNA, 20 μM purified G3BP1 and 100 ng of total cellular RNA from HEK293T cells were added to a buffer consisting of 100 mM NaCl and 16.7 mM HEPES (pH 7.5) in the presence of the indicated dose of G3Ib or vehicle control.

[2] = test system: eIF3η, PABPC1, and FXR1 puncta in U2OS cells stably expressing G3BP1-GFP; test: Immunofluorescence of additional stress granule markers after post-addition; format: cell-based; conditions: 250 μM NaAsO2 for 30 min, then 50 μM compound for 5 min
Description: U2OS cells or U2OS cells stably expressing G3BP1-GFP were seeded in four-well Lab-Tek II Chambered Coverglass (1055360; Thermo Fisher Scientific). For preincubation experiments, cells were treated with 50 μM G3I compound for 20 min or 24 h, followed by 250 μM NaAsO2 and 50 μM G3I compound for 30 min. For posttreatment, cells were treated with 250 μM NaAsO2 for 30 min, followed by treatment with 250 μM NaAsO2 and 50 μM G3I compound for 5 min. Cells were then washed twice with PBS and fixed with 4% PFA in PBS for 10 min. Cells were then washed three times with PBS (5 min between each wash), permeabilized with 0.5% Triton X-100 in PBS for 10 min, and washed twice with PBS. Next, cells were blocked for 1 h with 3% BSA in PBS at room temperature, followed by incubation with primary antibodies diluted in 3% BSA overnight at 4°C. Cells were then washed three times with PBS (5 min between each wash) and incubated with secondary antibodies and Hoechst diluted in 3% BSA at room temperature for 1 h. Cells were then washed three times with PBS (5 min between each wash) and imaged. […]

[3] = test system: stress granule formation in U2OS cells stably expressing G3BP1-GFP; test: Preincubation, heat shock-induced stress granule formation in U2OS; format: cell-based; conditions: 50 μM, 20 min pretreatment, 43°C heat shock, 15 min post heat shock
Description: For preincubation of compounds, U2OS or HeLa cells stably expressing G3BP1-GFP or CRISPR-modified cells expressing TDP-43-GFP/G3BP1-GFP were seeded into eight-well Lab-Tek chambered cover glass (Nunc). At least 20 min prior to the experiment, 1 ml FluoroBrite DMEM media (Gibco) supplemented with 10% FBS and 4 mM L-glutamine was combined with 0.1% DMSO or G3I compound (5, 10, or 50 μM). This solution was vortexed for 5 s, added to the cells at 250 μl per well, and left to incubate on the microscope for 20 min. Conditions were maintained at 37°C and 5% CO2 using a Bold Line Cage Incubator (Okolab) and an objective heater (Bioptechs). During this incubation time, 5 xy fields were stored per condition, with each field having ∼20–30 cells within it. After the 20-min incubation, 250 μl of 500 μM or 1 mM (2×) sodium arsenite (Sigma-Aldrich) diluted in the FluoroBrite media with an appropriate amount of G3I compound or DMSO was added to the sample. Imaging began immediately after, with images at each xy field being taken every 1 min. For heat shock experiments, U2OS G3BP1-GFP-expressing cells were seeded into a 35-mm glass bottom dish (MatTek). Prior to the experiment, 1.5 ml FluoroBrite DMEM media (Gibco) supplemented with 10% FBS and 4 mM L-glutamine was combined with 0.1% DMSO or 50 μM G3I compound. The sample was incubated on the environmentally controlled microscope for 20 min. […]

T1 sequence (Q13283 whole entry): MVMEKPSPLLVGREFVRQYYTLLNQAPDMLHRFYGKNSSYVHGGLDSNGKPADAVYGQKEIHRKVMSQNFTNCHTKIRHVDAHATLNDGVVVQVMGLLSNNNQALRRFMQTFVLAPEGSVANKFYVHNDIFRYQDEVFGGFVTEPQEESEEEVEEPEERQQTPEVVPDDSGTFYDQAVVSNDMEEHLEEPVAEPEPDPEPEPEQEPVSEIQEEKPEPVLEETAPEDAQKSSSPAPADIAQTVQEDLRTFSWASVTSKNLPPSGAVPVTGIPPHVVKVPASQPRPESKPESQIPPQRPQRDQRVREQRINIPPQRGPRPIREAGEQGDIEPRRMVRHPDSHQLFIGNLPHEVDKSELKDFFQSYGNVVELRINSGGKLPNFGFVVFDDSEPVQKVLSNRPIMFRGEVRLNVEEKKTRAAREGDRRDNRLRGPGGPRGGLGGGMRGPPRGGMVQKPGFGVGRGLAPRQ
T1 sequence (Q13283 whole entry): as above

SMILES | IC50, inhibition of G3BP1-GFP in vitro phase separation [1] | LogIC50, inhibition of G3BP1-GFP in vitro phase separation [1] | LogIC50, inhibition of G3BP1-GFP in vitro phase separation ([1]; listed as G3Ia') | IC50 [1] | co-condensation of caprin 1, G3BP1, and RNA [1] | HillSlope, inhibition of G3BP1-GFP in vitro phase separation [1] | HillSlope, inhibition of G3BP1-GFP in vitro phase separation ([1]; listed as G3Ia') | Bottom (lowest value of curve), percent inhibition of in vitro phase separation [1] | Top (highest value of curve), percent inhibition of in vitro phase separation [1] | eIF3η, PABPC1, and FXR1 puncta [2] | reduction of stress granule formation compared with inactive enantiomer [3] | LogIC50, inhibition of G3BP1-GFP in vitro phase separation ([1]; listed as G3Ib') | HillSlope, inhibition of G3BP1-GFP in vitro phase separation ([1]; listed as G3Ib')
COCCC(NC(=O)C(C)NC(=O)C(NC(=O)C(NC(=O)C(F)CC(C)(C)C)C(C)(C)O)C(C)c1ccccc1)C(=O)N(C)Cc1ccccc1 (stereo not shown) [G3Ia] | Unstable | 0.6508 | Unstable | 4.48 µM | disrupted the co-condensation | 1.354 | Unstable | Unstable | Unstable | reduced eIF3η, PABPC1, and FXR1 puncta | ~79% | – | –
CC(NC(=O)C(NC(=O)C(NC(=O)CCC(C)(C)C)C(C)(C)O)C(C)c1ccccc1)C(=O)N1CCCC1c1ccccc1 (stereo not shown) [G3Ib] | Unstable | 0.5379 | – | 3.45 µM | disrupted the co-condensation | 1.004 | – | 4.401 | 1.518 | reduced eIF3η, PABPC1, and FXR1 puncta | ~82% | Unstable | Unstable
